Literature values, collected in US20070003621A1, “Dosage forms for movement disorder treatment” (Spherics, Inc., priority 2005, published 2007).

Conditions: doses of 400 mg per day

For `C[C@@](Cc1ccc(O)c(O)c1)(NN)C(=O)O` [carbidopa], the adverse effects is listed as “fails to elicit adverse effects”.
